Source: patent US20230225991A1, “COMPOUNDS FOR USE IN THE TREATMENT OF ACUTE INTERMITTENT PORPHYRIA” (VESTLANDETS INNOVASJONSSELSKAP AS, priority 2019, published 2023)
Marks after values point to notes of the source that are not given here.

Legend:
[1] = biological target: T1, WT-HMBS (Homo sapiens, UniProt P08397); assay: Limited proteolysis by trypsin; format: biochemical; settings: 84 μM compound; for Protection against tryptic proteolysis: 2% DMSO
T1 construct: Full-length HMBS was cloned into pET-28a(+)-TEV vector and transformed into BL21 (DE3) cells for expression; 6xHis (N, cleaved yes); TEV protease cleavage site (N, cleaved yes); made in house; host or cells: E. coli BL21 (DE3)
T1 sequence (P08397 1-361): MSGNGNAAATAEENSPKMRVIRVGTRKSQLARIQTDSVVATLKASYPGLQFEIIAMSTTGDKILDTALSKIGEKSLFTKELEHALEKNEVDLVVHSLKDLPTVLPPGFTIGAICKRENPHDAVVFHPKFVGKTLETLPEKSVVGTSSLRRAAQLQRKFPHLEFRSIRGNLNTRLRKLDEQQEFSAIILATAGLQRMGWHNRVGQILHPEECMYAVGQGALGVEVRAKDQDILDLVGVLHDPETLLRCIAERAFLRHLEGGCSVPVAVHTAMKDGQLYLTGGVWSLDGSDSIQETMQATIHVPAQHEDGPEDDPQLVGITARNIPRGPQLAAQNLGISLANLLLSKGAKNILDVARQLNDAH
Procedure: Limited proteolysis by trypsin was performed at 37° C. in 20 mM HEPES, 150 mM NaCl, 2% DMSO, pH 8.2, with 0.15 μg/μl HMBS in the absence (DMSO-control) or presence of 84 μM compound and 2% DMSO. The proteolysis was initiated by adding 1 μg/ml TPCK-treated trypsin (Sigma-Aldrich). After 30 min, aliquots were removed and transferred to Laemmli loading buffer containing 2 μg/ml soybean trypsin inhibitor. Samples resolved by electrophoresis with 10% Mini-Protean® TGX™ gels (Bio-Rad Laboratories, Inc.) were analyzed using the Image Lab™ software (Bio-Rad Laboratories, Inc.). The unpaired t-test (two tailed) was performed using GraphPad Prism.
(§1) Limited tryptic proteolysis was also applied to compound BG-1. Proteolysis of WT-HMBS provided three major bands with relative content 34.5±0.3%, 14.7±0.8% and 50.9±0.5%, corresponding to remaining full-length HMBS (˜42.5 kDa), and two fragments of ˜41.0 kDa and ˜31.5 kDa, respectively (FIG. 1). […] The effect of this compound at 84 μM on the steady-state enzyme kinetics of HMBS was then calculated (Table 2).

[2] = biological target: T2, HMBS in HepG2 cells over-expressing HMBS (Homo sapiens, UniProt P08397); assay: HMBS protein level in WT-HMBS stably transfected HepG2 cells (western immunoblot); format: cell-based; settings: 0-168 μM compound, 2% DMSO, 24 h; quantitative western immunoblotting
T2 construct: expressed in transfected cells; host or cells: HepG2 (stably transfected, G418-selected)
T2 sequence (P08397 1-361): T1 sequence (P08397 1-361)
Procedure: The human hepatoma HepG2 cells were obtained from Leibniz-Institut DSMZ—Deutsche Sammlung von Mikroorganismen und Zellkulturen GmbH. Cells were maintained in RPMI 1640, GlutaMAX™ (Thermo Fisher Scientific) medium supplemented with 10% heat-inactivated fetal bovine serum and 1% penicillin-streptomycin (Thermo Fisher Scientific) in a humidified incubator with 5% CO2 at 37° C. HMBS cDNA was inserted into the pcDNA3.1(+) cloning vector (Thermo Fisher Scientific). The HepG2 cells were then transfected with the pcDNA3.1(+) vector containing HMBS using FuGENE®HD Transfection Reagent (Promega, Madison, Wis.) according to the manufacturer's recommendations. Stably transfected clones were selected for resistance to the neomycin analogue G418 (Thermo Fisher Scientific). WT-HMBS transfected HepG2 cells (2×10^6) were seeded and grown for 22 h before compounds were added to final concentrations of 0, 40, 84, 120 and 168 μM in 2% DMSO. Cells were harvested after 24 h and analyzed as described below. […]
Cell lysate samples (20 μg total protein) were separated by electrophoresis and subsequently transferred to a PVDF transfer membrane (Bio-Rad). […] Chemiluminescence of secondary Ab-HRP conjugates was elicited using Luminata™ Crescendo Western HRP Substrate (Merck Millipore, Burlington, Mass.), imaged with Gel Doc™ XR+ (Bio-Rad) and quantified using Image Lab software (Bio-Rad). […]

[3] = biological target: T1, WT-HMBS; assay: Steady-state enzyme kinetics of HMBS (KM, Vmax); format: biochemical; settings: for Effect on steady-state enzyme kinetics of HMBS: 84 μM compound; for Vmax: variable PBG (0-1 mM), 37° C.
Procedure: The effect of the compounds on the stability of HMBS activity was assayed by pre-incubating the HMBS (4-5 μg) in 50 mM HEPES pH 8.2, 84 μM compound and 2% DMSO for 20 min at 70° C., and then placed on ice for 5 min. The enzymatic activity at 37° C. was subsequently measured as reported previously (Bustad et al., Bioscience reports 2013; 3 3(4)). Controls without compound but with equal concentration of DMSO were included. The remaining activity in the presence of compounds was normalized relative to DMSO-control (relative activity). […] USA, www.graphpad.com.
as §1

[4] = biological target: T1, WT-HMBS; assay: DSF thermal upshift (ΔTm) of HMBS; format: binding
Procedure: Compounds BG-2, BG-3 and BG-4 were tested on recombinant WT-HMBS using DSF and tryptic proteolysis.

O=Cc1cc(Cc2ccccc2Cl)cc([N+](=O)[O-])c1O [BG-1]
Protection against tryptic proteolysis ([1]; remaining full-length HMBS relative to DMSO): ++** (++, 10% remaining full-length HMBS relative to DMSO.) | Protection against proteolysis ([1]; limited tryptic proteolysis): exhibited protection against proteolysis | Relative amount of HMBS in HepG2 cells [2]: increasing relative amount of HMBS with increasing concentration | Effect on steady-state enzyme kinetics of HMBS [3]: reduction in both KM and Vmax | Vmax ([3]; 84 μM compound in 2% DMSO, DMSO control 61 ± 2): 56 ± 1 nmol/min/mg | ΔTm at 122 µM ([4]; thermal upshift at y = 0.5 in scaled fluorescence curves, average compound concentration 122 μM (2% DMSO)): 1.6 °C

O=C(c1ccccc1)c1ccc(Cl)c([N+](=O)[O-])c1 [BG-2]
Protection against tryptic proteolysis ([1]; Table 3): +* (+, >4%) | Relative amount of HMBS in HepG2 cells [2]: increased the HMBS protein levels similarly to BG-1 | Effect on steady-state enzyme kinetics of HMBS [3]: weak mixed inhibitory effect | Vmax ([3]; Table 3, 84 μM compound with 2% DMSO, control 61 ± 2): 54 ± 2 nmol/min/mg | ΔTm at 122 µM ([4]; Table 3, average compound concentration 122 μM (2% DMSO)): 4.9 °C
